# According to publication PMC8371461 (Frontiers in Pharmacology, 2021):
# Columns and labels:
# BIKE = target: T1, BIKE (Homo sapiens, UniProt Q9NSY1); assay: kinome scan; format: binding; settings: 10 µM
# T1 construct: purchased DiscoverX (KINOMEscan)
# MST2 = target: T2, MST2 (Homo sapiens, UniProt Q13188); assay: kinome scan; format: binding; settings: 10 µM
# T2 construct: purchased DiscoverX (KINOMEscan)
# [1] = target: T3, RSK4(Kin.Dom.2-C-terminal) (Homo sapiens, UniProt Q9UK32); assay: kinome scan; format: binding; settings: 10 µM
# T3 construct: RSK4(Kin.Dom.2-C-terminal); purchased DiscoverX (KINOMEscan)
# T3 sequence (Q9UK32 426-683 limits assumed): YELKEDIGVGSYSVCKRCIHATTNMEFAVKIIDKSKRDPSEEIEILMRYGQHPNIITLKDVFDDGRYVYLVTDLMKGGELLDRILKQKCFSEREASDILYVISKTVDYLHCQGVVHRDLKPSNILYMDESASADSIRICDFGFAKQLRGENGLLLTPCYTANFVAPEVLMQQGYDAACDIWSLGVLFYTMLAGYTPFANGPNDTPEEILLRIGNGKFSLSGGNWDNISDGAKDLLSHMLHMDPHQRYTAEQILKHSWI
# EPHA1 = target: T4, EPHA1 (Homo sapiens, UniProt P21709); assay: kinome scan; format: binding; settings: 10 µM
# T4 construct: purchased DiscoverX (KINOMEscan)
# PDPK1 = target: T5, PDPK1 (Homo sapiens, UniProt O15530); assay: kinome scan; format: binding; settings: 10 µM
# T5 construct: purchased DiscoverX (KINOMEscan)
# IKK-beta = target: T6, IKK-beta (Homo sapiens, UniProt O14920); assay: kinome scan; format: binding; settings: 10 µM
# T6 construct: purchased DiscoverX (KINOMEscan)
# GAK = target: T7, GAK (Homo sapiens, UniProt O14976); assay: kinome scan; format: binding
# T7 construct: T7 phage fusion (kinase-tagged phage); purchased DiscoverX; host or cells: BL21-derived E. coli (T7 phage)
# T7 sequence (O14976 1-1311): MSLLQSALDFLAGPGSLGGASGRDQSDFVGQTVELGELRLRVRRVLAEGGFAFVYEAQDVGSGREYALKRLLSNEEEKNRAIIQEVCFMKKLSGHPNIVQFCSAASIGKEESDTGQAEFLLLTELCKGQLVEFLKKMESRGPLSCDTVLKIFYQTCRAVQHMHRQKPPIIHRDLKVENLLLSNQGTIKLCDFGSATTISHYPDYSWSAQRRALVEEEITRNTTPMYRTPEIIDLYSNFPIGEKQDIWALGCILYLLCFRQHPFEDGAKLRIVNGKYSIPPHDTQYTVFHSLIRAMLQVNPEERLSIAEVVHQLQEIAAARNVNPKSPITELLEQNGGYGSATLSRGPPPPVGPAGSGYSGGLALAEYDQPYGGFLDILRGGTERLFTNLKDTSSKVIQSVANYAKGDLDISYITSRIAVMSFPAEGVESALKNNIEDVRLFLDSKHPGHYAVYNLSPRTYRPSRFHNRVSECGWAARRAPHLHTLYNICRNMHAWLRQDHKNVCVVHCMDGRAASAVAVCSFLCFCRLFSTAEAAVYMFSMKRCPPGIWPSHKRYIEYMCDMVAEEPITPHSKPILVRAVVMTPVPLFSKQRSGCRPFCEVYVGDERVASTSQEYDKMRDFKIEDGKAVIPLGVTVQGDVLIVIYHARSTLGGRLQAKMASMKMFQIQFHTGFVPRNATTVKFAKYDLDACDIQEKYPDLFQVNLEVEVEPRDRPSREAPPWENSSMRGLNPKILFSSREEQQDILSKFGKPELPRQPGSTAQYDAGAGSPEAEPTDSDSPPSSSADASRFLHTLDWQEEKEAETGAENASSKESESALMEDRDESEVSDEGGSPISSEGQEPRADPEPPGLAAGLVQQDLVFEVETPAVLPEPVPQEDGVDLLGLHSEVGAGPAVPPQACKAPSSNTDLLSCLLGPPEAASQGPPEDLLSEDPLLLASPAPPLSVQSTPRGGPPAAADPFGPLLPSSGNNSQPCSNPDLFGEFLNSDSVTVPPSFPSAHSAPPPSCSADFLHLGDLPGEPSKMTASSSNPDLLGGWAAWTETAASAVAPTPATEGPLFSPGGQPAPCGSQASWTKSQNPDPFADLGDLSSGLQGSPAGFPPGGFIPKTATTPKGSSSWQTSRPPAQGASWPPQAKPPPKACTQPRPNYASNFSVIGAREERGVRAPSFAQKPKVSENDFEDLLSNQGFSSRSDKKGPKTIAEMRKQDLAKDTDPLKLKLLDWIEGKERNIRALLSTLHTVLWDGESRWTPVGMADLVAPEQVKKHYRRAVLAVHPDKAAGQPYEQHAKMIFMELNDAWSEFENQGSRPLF
# PRKCI = target: T8, PRKCI (Homo sapiens, UniProt P41743); assay: kinome scan; format: binding; settings: 10 µM
# T8 construct: purchased DiscoverX (KINOMEscan)
# NEK6 = target: T9, NEK6 (Homo sapiens, UniProt Q9HC98); assay: kinome scan; format: binding; settings: 10 µM
# T9 construct: purchased DiscoverX (KINOMEscan)
# T9 sequence (Q9HC98 whole entry): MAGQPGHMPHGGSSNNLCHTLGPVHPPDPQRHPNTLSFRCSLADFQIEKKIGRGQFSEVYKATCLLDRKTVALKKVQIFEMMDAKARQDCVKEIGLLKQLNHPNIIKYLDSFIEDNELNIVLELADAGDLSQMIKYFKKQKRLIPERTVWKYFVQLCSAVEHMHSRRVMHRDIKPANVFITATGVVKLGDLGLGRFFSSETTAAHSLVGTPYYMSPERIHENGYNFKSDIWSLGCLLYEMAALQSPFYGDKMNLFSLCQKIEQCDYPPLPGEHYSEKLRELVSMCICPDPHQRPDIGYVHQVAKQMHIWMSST
# GRK4 = target: T10, GRK4 (Homo sapiens, UniProt P32298); assay: kinome scan; format: binding; settings: 10 µM
# T10 construct: purchased DiscoverX (KINOMEscan)
# T10 sequence (P32298 whole entry): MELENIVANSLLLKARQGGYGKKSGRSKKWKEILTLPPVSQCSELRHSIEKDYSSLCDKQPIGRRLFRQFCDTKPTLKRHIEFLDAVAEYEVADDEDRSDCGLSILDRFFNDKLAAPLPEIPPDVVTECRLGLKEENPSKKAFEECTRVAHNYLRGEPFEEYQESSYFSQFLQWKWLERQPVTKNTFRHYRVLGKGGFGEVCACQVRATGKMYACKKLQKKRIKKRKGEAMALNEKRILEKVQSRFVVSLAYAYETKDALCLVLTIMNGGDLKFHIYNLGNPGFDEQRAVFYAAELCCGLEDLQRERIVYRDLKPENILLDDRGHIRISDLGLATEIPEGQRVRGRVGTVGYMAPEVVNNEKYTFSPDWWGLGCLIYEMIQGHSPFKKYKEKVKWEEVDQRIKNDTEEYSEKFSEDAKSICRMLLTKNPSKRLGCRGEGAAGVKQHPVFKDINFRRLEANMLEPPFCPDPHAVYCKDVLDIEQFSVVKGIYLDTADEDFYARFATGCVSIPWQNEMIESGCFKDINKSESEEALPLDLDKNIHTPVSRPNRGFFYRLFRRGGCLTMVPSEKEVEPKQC
# HeLa cells = assay: LC3B positive autophagosomes, immunofluorescent staining; format: cell-based; settings: 10 µM, three days
# Method: Cells were fixed with PBS containing 0.5% of para-formaldehyde for 15 min at room temperature. After three washing steps in PBS, cells were permeabilized with PBS containing 0.3% of Triton X-100 (Sigma) for 1 h at room temperature. After washing with PBS three times, cells were incubated overnight with the anti-LC3B antibody in PBS with 1% bovine serum albumin (Sigma) at 4°C. After three washing steps in PBS, cells were incubated with the fluorescent secondary antibody for 90 min at 4°C in PBS with 1% bovine serum albumin. They were then incubated with […] DAPI (Thermofisher) in PBS for 15 min. After washing with PBS, cells were rinsed once in water prior to mounting in the FluorSave reagent (Millipore).
# Depending of these transitory environmental conditions, autophagy can either promote survival or apoptosis ([Degtyarev et al., 2008]). PIK/AKT pathway inhibition has been reported to increase cell autophagy ([Palmieri et al., 2017]). More specifically, PIP4K2C has been described as a down-regulator of autophagy ([Sharma et al., 2019]).
# [2] = target: T11, RSK2(Kin.Dom.1-N-terminal) (Homo sapiens, UniProt P51812); assay: kinome scan; format: binding; settings: 10 µM
# T11 construct: RSK2(Kin.Dom.1-N-terminal); purchased DiscoverX (KINOMEscan)
# T11 sequence (P51812 68-327 limits assumed): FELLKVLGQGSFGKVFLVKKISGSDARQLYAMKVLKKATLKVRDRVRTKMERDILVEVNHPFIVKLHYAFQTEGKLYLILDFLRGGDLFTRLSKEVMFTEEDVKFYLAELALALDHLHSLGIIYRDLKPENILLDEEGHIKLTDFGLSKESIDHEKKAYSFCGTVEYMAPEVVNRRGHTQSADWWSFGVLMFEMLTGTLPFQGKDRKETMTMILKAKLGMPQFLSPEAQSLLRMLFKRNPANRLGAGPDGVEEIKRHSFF
# CASK = target: T12, CASK (Homo sapiens, UniProt O14936); assay: kinome scan; format: binding; settings: 10 µM
# T12 construct: purchased DiscoverX (KINOMEscan)
# PIK3CA(Q546K) = target: T13, PIK3CA(Q546K) (Homo sapiens, UniProt P42336, Q546K); assay: kinome scan; format: binding; settings: 10 µM
# T13 construct: purchased DiscoverX (KINOMEscan)
# [3] = target: T14, RPS6KA4(Kin.Dom.1-N-terminal) (Homo sapiens, UniProt O75676); assay: kinome scan; format: binding; settings: 10 µM
# T14 construct: RPS6KA4(Kin.Dom.1-N-terminal); purchased DiscoverX (KINOMEscan)
# T14 sequence (O75676 33-371 limits assumed): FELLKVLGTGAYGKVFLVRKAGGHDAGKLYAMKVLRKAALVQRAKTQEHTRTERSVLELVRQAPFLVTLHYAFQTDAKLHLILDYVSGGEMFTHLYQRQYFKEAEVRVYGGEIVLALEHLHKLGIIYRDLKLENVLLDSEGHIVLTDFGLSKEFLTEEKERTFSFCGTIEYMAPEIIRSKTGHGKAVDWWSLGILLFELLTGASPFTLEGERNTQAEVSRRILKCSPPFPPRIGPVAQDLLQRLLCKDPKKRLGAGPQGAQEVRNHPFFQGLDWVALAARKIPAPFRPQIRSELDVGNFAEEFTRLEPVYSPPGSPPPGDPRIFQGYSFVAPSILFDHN
# ACVR1B = target: T15, ACVR1B (Homo sapiens, UniProt P36896); assay: kinome scan; format: binding; settings: 10 µM
# T15 construct: purchased DiscoverX (KINOMEscan)
# T15 sequence (P36896 24-505): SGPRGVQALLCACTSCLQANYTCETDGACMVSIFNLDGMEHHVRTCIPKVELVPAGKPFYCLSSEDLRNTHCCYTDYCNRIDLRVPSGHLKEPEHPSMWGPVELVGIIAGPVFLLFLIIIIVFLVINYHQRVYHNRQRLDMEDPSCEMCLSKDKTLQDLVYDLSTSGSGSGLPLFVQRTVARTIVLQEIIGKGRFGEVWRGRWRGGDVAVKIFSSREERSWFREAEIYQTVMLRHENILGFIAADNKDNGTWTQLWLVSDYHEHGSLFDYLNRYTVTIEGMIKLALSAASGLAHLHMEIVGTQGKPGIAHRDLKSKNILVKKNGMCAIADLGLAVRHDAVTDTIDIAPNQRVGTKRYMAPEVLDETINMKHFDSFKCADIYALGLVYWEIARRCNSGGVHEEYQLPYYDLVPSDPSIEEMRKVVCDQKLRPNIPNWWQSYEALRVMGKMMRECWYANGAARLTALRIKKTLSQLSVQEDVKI
# PIK3C2G = target: T16, PIK3C2G (Homo sapiens, UniProt O75747); assay: kinome scan; format: binding
# T16 construct: purchased DiscoverX (KINOMEscan)
# T16 sequence (O75747 whole entry): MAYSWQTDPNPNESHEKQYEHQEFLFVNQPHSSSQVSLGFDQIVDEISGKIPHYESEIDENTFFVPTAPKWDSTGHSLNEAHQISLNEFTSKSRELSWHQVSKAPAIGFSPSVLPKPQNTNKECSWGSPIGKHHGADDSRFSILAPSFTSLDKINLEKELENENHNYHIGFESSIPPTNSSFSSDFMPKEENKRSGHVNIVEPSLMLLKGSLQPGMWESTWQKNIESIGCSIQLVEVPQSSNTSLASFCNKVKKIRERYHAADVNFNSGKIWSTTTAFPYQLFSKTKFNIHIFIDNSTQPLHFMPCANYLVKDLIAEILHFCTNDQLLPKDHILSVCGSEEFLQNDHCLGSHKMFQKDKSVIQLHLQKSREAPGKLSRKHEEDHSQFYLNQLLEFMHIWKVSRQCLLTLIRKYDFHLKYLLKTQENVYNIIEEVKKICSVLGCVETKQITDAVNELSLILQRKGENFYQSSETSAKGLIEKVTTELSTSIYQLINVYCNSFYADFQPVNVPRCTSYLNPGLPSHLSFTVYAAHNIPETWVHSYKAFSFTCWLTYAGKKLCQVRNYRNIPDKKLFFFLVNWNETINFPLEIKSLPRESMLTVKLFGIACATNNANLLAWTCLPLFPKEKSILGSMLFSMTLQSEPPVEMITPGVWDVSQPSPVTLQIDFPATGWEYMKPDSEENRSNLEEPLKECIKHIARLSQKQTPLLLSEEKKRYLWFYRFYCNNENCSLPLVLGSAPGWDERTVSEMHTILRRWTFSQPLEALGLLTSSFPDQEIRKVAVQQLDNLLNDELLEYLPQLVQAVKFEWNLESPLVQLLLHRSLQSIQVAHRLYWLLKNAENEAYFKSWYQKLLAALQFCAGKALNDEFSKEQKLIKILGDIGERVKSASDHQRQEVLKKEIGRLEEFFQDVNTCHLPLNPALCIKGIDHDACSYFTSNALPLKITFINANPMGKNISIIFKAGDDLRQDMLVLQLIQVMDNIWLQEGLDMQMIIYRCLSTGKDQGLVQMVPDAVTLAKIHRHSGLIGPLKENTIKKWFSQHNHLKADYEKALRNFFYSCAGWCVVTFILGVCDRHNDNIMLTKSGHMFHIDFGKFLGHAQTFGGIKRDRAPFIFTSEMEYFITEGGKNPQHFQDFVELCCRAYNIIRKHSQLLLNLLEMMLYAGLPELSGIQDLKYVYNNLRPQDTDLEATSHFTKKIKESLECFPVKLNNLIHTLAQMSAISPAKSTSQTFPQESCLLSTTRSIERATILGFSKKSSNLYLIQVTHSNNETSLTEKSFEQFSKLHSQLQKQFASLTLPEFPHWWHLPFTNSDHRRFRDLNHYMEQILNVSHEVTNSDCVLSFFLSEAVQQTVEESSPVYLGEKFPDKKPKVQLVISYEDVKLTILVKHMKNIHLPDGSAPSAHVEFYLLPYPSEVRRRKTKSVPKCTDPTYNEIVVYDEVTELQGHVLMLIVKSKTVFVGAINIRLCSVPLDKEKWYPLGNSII
# CDK3 = target: T17, CDK3 (Homo sapiens, UniProt Q00526); assay: kinome scan; format: binding; settings: 10 µM
# T17 construct: purchased DiscoverX (KINOMEscan)
# T1 sequence (Q9NSY1 whole entry): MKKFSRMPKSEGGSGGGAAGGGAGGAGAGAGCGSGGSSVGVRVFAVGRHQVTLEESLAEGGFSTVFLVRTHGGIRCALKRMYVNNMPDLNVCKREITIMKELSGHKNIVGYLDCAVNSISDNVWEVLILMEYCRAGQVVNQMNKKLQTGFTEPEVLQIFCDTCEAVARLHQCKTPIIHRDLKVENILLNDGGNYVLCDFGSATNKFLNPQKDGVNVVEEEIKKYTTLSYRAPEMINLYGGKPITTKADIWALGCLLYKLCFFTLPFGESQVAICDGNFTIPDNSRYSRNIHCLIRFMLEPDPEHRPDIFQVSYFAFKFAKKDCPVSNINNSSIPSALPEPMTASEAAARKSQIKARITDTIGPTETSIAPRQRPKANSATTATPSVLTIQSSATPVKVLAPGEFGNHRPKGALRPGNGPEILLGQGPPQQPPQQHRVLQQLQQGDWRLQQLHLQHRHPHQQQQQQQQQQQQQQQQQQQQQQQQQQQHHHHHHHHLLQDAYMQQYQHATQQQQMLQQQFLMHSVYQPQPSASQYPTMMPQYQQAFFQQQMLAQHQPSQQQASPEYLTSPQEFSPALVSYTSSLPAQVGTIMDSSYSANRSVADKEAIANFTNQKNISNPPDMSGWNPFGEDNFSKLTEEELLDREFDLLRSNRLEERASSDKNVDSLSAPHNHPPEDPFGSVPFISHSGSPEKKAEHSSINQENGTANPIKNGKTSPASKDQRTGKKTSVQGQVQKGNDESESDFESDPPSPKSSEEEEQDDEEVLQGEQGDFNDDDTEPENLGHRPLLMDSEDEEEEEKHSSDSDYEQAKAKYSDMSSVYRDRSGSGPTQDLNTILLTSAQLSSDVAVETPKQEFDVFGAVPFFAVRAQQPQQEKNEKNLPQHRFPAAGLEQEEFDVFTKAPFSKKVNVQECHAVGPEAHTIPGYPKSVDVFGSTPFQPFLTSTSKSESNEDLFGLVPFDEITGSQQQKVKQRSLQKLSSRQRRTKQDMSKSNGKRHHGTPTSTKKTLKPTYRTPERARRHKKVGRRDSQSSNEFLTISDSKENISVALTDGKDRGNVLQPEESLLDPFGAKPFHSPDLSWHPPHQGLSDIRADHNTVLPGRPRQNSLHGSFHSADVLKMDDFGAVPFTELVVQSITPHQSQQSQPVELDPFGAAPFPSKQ
smiles,measurement,setting,value
"Nc1ccc(N=Nc2ccccc2)c(N)n1 [phenazopyridine, 2,6-diamino-3-(phenylazo)pyridine]",kinase inhibition,BIKE,99
same,kinase inhibition,MST2,73
same,kinase inhibition,[1],81
same,kinase inhibition,EPHA1,100
same,kinase inhibition,PDPK1,100
same,kinase inhibition,IKK-beta,89
same,remaining binding (% of control),GAK; 10 µM,16
same,remaining binding at 10 µM,GAK; read-out: % Of control,16%
same,kinase inhibition,PRKCI,100
same,kinase inhibition,NEK6,100
same,kinase inhibition,GRK4,95
same,number of LC3B-positive autophagosomes,HeLa cells,increased
same,kinase inhibition,[2],100
same,kinase inhibition,CASK,99
same,kinase inhibition,PIK3CA(Q546K),100
same,kinase inhibition,[3],89
same,kinase inhibition,ACVR1B,86
same,remaining activity,PIK3C2G; 10 µM,24
same,remaining binding at 10 µM,PIK3C2G; read-out: % Of control,24%
same,kinase inhibition,CDK3,100
